The source of these data is the supplement of paper PMC10307832.

Common to all, as to experiment: relative viability (nuclei count vs DMSO), 5 days (fraction); higher = more cells survive
Compound in assay [1]: CC1CC(=O)N(C2=CN=C(N=C2N1C3CCCC3)NC4=C(C=C(C=C4)C(=O)NC5CCN(CC5)C)OC)C [NPK76-II-72-1] + N=C(N)NC(=N)NCCc1ccccc1 [Phenformin] (partner 250 µM)
The method in brief: (§1)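 The day after seeding in 1536-well plates, lung cancer cell lines were treated by pin tool with a single drug, or with a fixed anchor-drug dose together with five library-drug doses (not always all listed) in √10 steps. After 5 days, a combined fix-and-stain solution (final 0.05% Triton X-100, 1% formaldehyde, 1 ug/ml Hoechst) was added. Nuclei counted on 4× images gave relative viability as treated counts over vehicle counts, reported as the median of duplicate plates.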

Compound in the assay “BI-2536 + Pictilisib”: CC[C@@H]1C(=O)N(C)c2cnc(Nc3ccc(C(=O)NC4CCN(C)CC4)cc3OC)nc2N1C1CCCC1 [BI-2536] + CS(=O)(=O)N1CCN(Cc2cc3nc(-c4cccc5[nH]ncc45)nc(N4CCOCC4)c3s2)CC1 [Pictilisib] (partner 1 µM)
The method in brief: as §1

Compound in the assay “BI-2536 + Trametinib”: CC[C@@H]1C(=O)N(C)c2cnc(Nc3ccc(C(=O)NC4CCN(C)CC4)cc3OC)nc2N1C1CCCC1 [BI-2536] + CC(=O)Nc1cccc(-n2c(=O)n(C3CC3)c(=O)c3c(Nc4ccc(I)cc4F)n(C)c(=O)c(C)c32)c1 [Trametinib] (partner 0.02 µM)
A digest of the protocol: as §1

Compound in the assay “BI-2536 + Vorinostat”: CC[C@@H]1C(=O)N(C)c2cnc(Nc3ccc(C(=O)NC4CCN(C)CC4)cc3OC)nc2N1C1CCCC1 [BI-2536] + O=C(CCCCCCC(=O)Nc1ccccc1)NO [Vorinostat] (partner 1 µM)
A digest of the protocol: as §1

Turning to LK-2, the relative viability in assay [1] (first compound 0.01 µM) is 0.379; in assay [1] (first compound 0.03162 µM), 0.583; in assay [1] (first compound 0.1 µM), 0.504; in assay [1] (first compound 0.3162 µM), 0.206; in assay [1] (first compound 1 µM), 0.561; with BI-2536 + Pictilisib (first compound 0.01 µM) it was 0.569. The relative viability in the assay with BI-2536 + Pictilisib (first compound 0.03162 µM) was 0.389; with BI-2536 + Pictilisib (first compound 0.1 µM) it was 0.375; in the assay with BI-2536 + Pictilisib (first compound 0.3162 µM), 0.196; with BI-2536 + Pictilisib (first compound 1 µM) it was 0.297; in the assay with BI-2536 + Trametinib (first compound 0.01 µM), 0.787; with BI-2536 + Trametinib (first compound 0.03162 µM), 0.752. The relative viability amounted to 0.746 in the assay with BI-2536 + Trametinib (first compound 0.1 µM); 0.173 with BI-2536 + Trametinib (first compound 0.3162 µM); 0.181 with BI-2536 + Trametinib (first compound 1 µM); 0.181 with BI-2536 + Vorinostat (first compound 0.01 µM); 0.242 with BI-2536 + Vorinostat (first compound 0.03162 µM); 0.15 in the assay with BI-2536 + Vorinostat (first compound 0.1 µM). Further, the results for the relative viability in the assay with BI-2536 + Vorinostat (first compound 0.3162 µM) and in the assay with BI-2536 + Vorinostat (first compound 1 µM) were 0.104 and 0.155, respectively.
Consider NCI-H322M, for which the relative viability came to 0.706 in assay [1] (first compound 0.01 µM); 0.935 in assay [1] (first compound 0.03162 µM); 0.778 in assay [1] (first compound 0.1 µM); 0.817 in assay [1] (first compound 0.3162 µM); 0.829 in assay [1] (first compound 1 µM); 0.303 with BI-2536 + Pictilisib (first compound 0.01 µM). Moreover, the relative viability with BI-2536 + Pictilisib (first compound 0.03162 µM) turned out to be 0.478; in the assay with BI-2536 + Pictilisib (first compound 0.1 µM), 0.559; with BI-2536 + Pictilisib (first compound 0.3162 µM), 0.519; with BI-2536 + Pictilisib (first compound 1 µM), 0.271; with BI-2536 + Trametinib (first compound 0.01 µM), 0.535; with BI-2536 + Trametinib (first compound 0.03162 µM), 0.473. For the same cell line, the relative viability with BI-2536 + Trametinib (first compound 0.1 µM) stood at 0.564; with BI-2536 + Trametinib (first compound 0.3162 µM) it was 0.435; with BI-2536 + Trametinib (first compound 1 µM), 0.361; with BI-2536 + Vorinostat (first compound 0.01 µM), 0.926; in the assay with BI-2536 + Vorinostat (first compound 0.03162 µM) it was 0.829; in the assay with BI-2536 + Vorinostat (first compound 0.1 µM), 0.641. For the same cell line, the values for the relative viability with BI-2536 + Vorinostat (first compound 0.3162 µM) and with BI-2536 + Vorinostat (first compound 1 µM) were 0.45 and 0.422, respectively.
In the case of NCI-H520, the relative viability in assay [1] (first compound 0.01 µM) worked out at 0.526; in assay [1] (first compound 0.03162 µM), 0.632; in assay [1] (first compound 0.1 µM) it was 0.46; in assay [1] (first compound 0.3162 µM), 0.519; in assay [1] (first compound 1 µM), 0.598; with BI-2536 + Pictilisib (first compound 0.01 µM), 0.287. Also, the relative viability with BI-2536 + Pictilisib (first compound 0.03162 µM) amounted to 0.232; in the assay with BI-2536 + Pictilisib (first compound 0.1 µM), 0.268; with BI-2536 + Pictilisib (first compound 0.3162 µM), 0.172; with BI-2536 + Pictilisib (first compound 1 µM) it was 0.162; with BI-2536 + Trametinib (first compound 0.01 µM) it was 0.712; in the assay with BI-2536 + Trametinib (first compound 0.03162 µM), 0.503. The relative viability turned out to be 0.352 with BI-2536 + Trametinib (first compound 0.1 µM); 0.187 with BI-2536 + Trametinib (first compound 0.3162 µM); 0.164 with BI-2536 + Trametinib (first compound 1 µM); 0.599 in the assay with BI-2536 + Vorinostat (first compound 0.01 µM); 0.25 in the assay with BI-2536 + Vorinostat (first compound 0.03162 µM); 0.24 in the assay with BI-2536 + Vorinostat (first compound 0.1 µM). The relative viability with BI-2536 + Vorinostat (first compound 0.3162 µM) was 0.181; with BI-2536 + Vorinostat (first compound 1 µM), 0.179.
Consider NCI-H1666, for which the relative viability in assay [1] (first compound 0.01 µM) was found to be 0.509; in assay [1] (first compound 0.03162 µM), 0.581; in assay [1] (first compound 0.1 µM), 0.577; in assay [1] (first compound 0.3162 µM) it was 0.584; in assay [1] (first compound 1 µM) it was 0.583; with BI-2536 + Pictilisib (first compound 0.01 µM), 0.558. The relative viability is 0.393 in the assay with BI-2536 + Pictilisib (first compound 0.03162 µM); 0.2 with BI-2536 + Pictilisib (first compound 0.1 µM); 0.221 with BI-2536 + Pictilisib (first compound 0.3162 µM); 0.2 with BI-2536 + Pictilisib (first compound 1 µM); 0.919 with BI-2536 + Trametinib (first compound 0.01 µM); 0.914 with BI-2536 + Trametinib (first compound 0.03162 µM). Further, the relative viability with BI-2536 + Trametinib (first compound 0.1 µM) is 0.865; with BI-2536 + Trametinib (first compound 0.3162 µM), 0.49; with BI-2536 + Trametinib (first compound 1 µM) it was 0.512; in the assay with BI-2536 + Vorinostat (first compound 0.01 µM), 0.984; with BI-2536 + Vorinostat (first compound 0.03162 µM), 1.03; with BI-2536 + Vorinostat (first compound 0.1 µM), 1.03. The values for the relative viability with BI-2536 + Vorinostat (first compound 0.3162 µM) and in the assay with BI-2536 + Vorinostat (first compound 1 µM) were 0.504 and 0.49, respectively.
Turning to NCI-H1993, the relative viability in assay [1] (first compound 0.01 µM) was 0.55; in assay [1] (first compound 0.03162 µM), 0.49; in assay [1] (first compound 0.1 µM), 0.515; in assay [1] (first compound 0.3162 µM) it was 0.553; in assay [1] (first compound 1 µM), 0.521; with BI-2536 + Pictilisib (first compound 0.01 µM), 0.981. Moreover, the relative viability with BI-2536 + Pictilisib (first compound 0.03162 µM) stood at 0.681; with BI-2536 + Pictilisib (first compound 0.1 µM), 0.638; in the assay with BI-2536 + Pictilisib (first compound 0.3162 µM) it was 0.664; with BI-2536 + Pictilisib (first compound 1 µM), 0.631; with BI-2536 + Trametinib (first compound 0.01 µM), 0.448; with BI-2536 + Trametinib (first compound 0.03162 µM) it was 0.404. Further, the relative viability in the assay with BI-2536 + Trametinib (first compound 0.1 µM) is 0.56; in the assay with BI-2536 + Trametinib (first compound 0.3162 µM), 0.379; in the assay with BI-2536 + Trametinib (first compound 1 µM), 0.398; with BI-2536 + Vorinostat (first compound 0.01 µM) it was 0.665; with BI-2536 + Vorinostat (first compound 0.03162 µM) it was 0.425; with BI-2536 + Vorinostat (first compound 0.1 µM), 0.456. Further, the relative viability with BI-2536 + Vorinostat (first compound 0.3162 µM) turned out to be 0.489; in the assay with BI-2536 + Vorinostat (first compound 1 µM), 0.416.
For NCI-H1975, the relative viability in assay [1] (first compound 0.01 µM) amounted to 0.398; in assay [1] (first compound 0.03162 µM), 0.424; in assay [1] (first compound 0.1 µM), 0.395; in assay [1] (first compound 0.3162 µM), 0.43; in assay [1] (first compound 1 µM), 0.437; in the assay with BI-2536 + Pictilisib (first compound 0.01 µM), 0.27. The relative viability with BI-2536 + Pictilisib (first compound 0.03162 µM) is 0.284; in the assay with BI-2536 + Pictilisib (first compound 0.1 µM), 0.24; with BI-2536 + Pictilisib (first compound 0.3162 µM), 0.117; with BI-2536 + Pictilisib (first compound 1 µM), 0.135; in the assay with BI-2536 + Trametinib (first compound 0.01 µM), 0.252; in the assay with BI-2536 + Trametinib (first compound 0.03162 µM), 0.363. Also, the relative viability with BI-2536 + Trametinib (first compound 0.1 µM) stood at 0.295; with BI-2536 + Trametinib (first compound 0.3162 µM) it was 0.12; with BI-2536 + Trametinib (first compound 1 µM) it was 0.122; with BI-2536 + Vorinostat (first compound 0.01 µM), 0.727; with BI-2536 + Vorinostat (first compound 0.03162 µM), 0.593; in the assay with BI-2536 + Vorinostat (first compound 0.1 µM) it was 0.326. The results for the relative viability with BI-2536 + Vorinostat (first compound 0.3162 µM) and in the assay with BI-2536 + Vorinostat (first compound 1 µM) were 0.181 and 0.158, respectively.
As for HCC-44, the relative viability in assay [1] (first compound 0.01 µM) was 0.201; in assay [1] (first compound 0.03162 µM) it was 0.176; in assay [1] (first compound 0.1 µM), 0.22; in assay [1] (first compound 0.3162 µM), 0.212; in assay [1] (first compound 1 µM) it was 0.271; with BI-2536 + Pictilisib (first compound 0.01 µM) it was 0.68. Also, the relative viability with BI-2536 + Pictilisib (first compound 0.03162 µM) is 0.769; with BI-2536 + Pictilisib (first compound 0.1 µM), 0.257; with BI-2536 + Pictilisib (first compound 0.3162 µM) it was 0.0696; with BI-2536 + Pictilisib (first compound 1 µM), 0.0951; with BI-2536 + Trametinib (first compound 0.01 µM) it was 1.04; with BI-2536 + Trametinib (first compound 0.03162 µM), 1.04. Further, the relative viability worked out at 1.03 with BI-2536 + Trametinib (first compound 0.1 µM); 0.323 with BI-2536 + Trametinib (first compound 0.3162 µM); 0.275 with BI-2536 + Trametinib (first compound 1 µM); 1.19 with BI-2536 + Vorinostat (first compound 0.01 µM); 1.01 with BI-2536 + Vorinostat (first compound 0.03162 µM); 0.847 with BI-2536 + Vorinostat (first compound 0.1 µM). Moreover, the relative viability worked out at 0.346 with BI-2536 + Vorinostat (first compound 0.3162 µM) and 0.278 with BI-2536 + Vorinostat (first compound 1 µM).
